Laboratory results reported in ChEMBL document CHEMBL4130634, “Discovery of Reversible DNA Methyltransferase and Lysine Methyltransferase G9a Inhibitors with Antitumoral in Vivo Efficacy” (J Med Chem, 2018).
pIC50: −log10 of the molar value.

What was measured:
[1] = Growth inhibition of human LAL-CUN-2 cells after 48 hrs by MTS assay; type: functional
MV4-11 [2] = test: Growth inhibition of human MV4-11 cells after 48 hrs by MTS assay; type: functional; conditions: MV4-11, 48 h
THLE-2 = test: Growth inhibition of human THLE2 cells after 72 hrs by MTS assay; type: cell-based; conditions: thle-2, 72 h
[3] = Metabolic stability in human liver microsomes assessed as parent compound remaining at 1 uM preincubated for 10 mins followed by NADP addition after 20 mins by LC-MS/MS analysis; type: ADME, microsome
[4] = Half life in human liver microsomes at 1 uM preincubated for 10 mins followed by NADP addition after 20 mins by LC-MS/MS analysis; type: ADME, microsome
[5] = Metabolic stability in mouse liver microsomes assessed as parent compound remaining at 1 uM preincubated for 10 mins followed by NADP addition after 20 mins by LC-MS/MS analysis; type: ADME, microsome; conditions: read-out: Stability
[6] = Half life in mouse liver microsomes at 1 uM preincubated for 10 mins followed by NADP addition after 20 mins by LC-MS/MS analysis; type: ADME, microsome
[7] = AUC (0 to 24 hrs) in RARG2-/-gammac-/- Balb/c mouse at […], iv administered as single dose by LC-MS/MS analysis; type: ADME, organism-based; parameters: time < 24 hr, dose 2.5 mg/kg, route intravenous; conditions: in vivo
MV4-11 [8] = test: Antitumor activity against human MV4-11 cells xenografted in RARG2-/-gammac-/- Balb/c mouse assessed as tumor growth inhibition at […], iv for 21 consecutive days starting from day 1 post tumor inoculation measured on day 23 relative to control; type: functional; conditions: MV4-11, iv, read-out: TGI
[9] = target: T1, Histone-lysine N-methyltransferase EHMT2 (Homo sapiens, UniProt Q96KQ7); test: Inhibition of human G9a using biotinylated-H3K9 peptide as substrate after 1 hr in presence of SAM by TR-FRET assay
T1 sequence (Q96KQ7 whole entry): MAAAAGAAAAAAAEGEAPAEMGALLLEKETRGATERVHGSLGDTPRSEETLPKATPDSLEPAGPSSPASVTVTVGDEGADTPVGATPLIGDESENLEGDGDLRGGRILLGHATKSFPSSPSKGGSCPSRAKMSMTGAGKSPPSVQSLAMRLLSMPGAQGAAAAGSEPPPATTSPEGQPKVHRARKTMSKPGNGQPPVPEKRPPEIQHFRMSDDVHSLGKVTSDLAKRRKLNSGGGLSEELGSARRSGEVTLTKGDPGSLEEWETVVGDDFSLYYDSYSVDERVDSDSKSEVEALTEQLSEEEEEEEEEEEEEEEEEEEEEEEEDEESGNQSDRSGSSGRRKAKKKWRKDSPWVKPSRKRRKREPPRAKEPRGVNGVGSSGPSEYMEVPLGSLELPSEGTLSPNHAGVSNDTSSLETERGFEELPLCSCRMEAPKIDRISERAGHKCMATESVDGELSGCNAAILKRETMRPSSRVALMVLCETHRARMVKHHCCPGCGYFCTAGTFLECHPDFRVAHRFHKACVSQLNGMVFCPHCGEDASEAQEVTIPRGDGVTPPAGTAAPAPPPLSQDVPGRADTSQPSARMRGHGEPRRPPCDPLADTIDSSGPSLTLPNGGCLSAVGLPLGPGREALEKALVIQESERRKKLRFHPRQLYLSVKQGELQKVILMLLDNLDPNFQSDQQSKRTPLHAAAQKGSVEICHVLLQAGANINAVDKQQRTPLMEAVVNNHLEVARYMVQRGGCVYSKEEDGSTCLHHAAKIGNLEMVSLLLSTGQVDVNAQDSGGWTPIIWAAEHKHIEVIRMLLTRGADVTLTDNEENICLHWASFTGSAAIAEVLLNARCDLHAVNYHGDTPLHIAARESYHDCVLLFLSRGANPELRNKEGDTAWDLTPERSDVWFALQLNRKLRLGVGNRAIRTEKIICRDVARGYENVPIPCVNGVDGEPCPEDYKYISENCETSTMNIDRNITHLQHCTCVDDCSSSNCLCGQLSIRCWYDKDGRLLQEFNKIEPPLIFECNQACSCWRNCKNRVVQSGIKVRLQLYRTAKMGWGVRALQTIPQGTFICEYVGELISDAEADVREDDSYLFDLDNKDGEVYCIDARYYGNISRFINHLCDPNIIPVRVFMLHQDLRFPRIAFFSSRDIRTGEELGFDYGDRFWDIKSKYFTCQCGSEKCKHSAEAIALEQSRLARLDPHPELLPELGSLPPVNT

[10] = target: DNA (cytosine-5)-methyltransferase 1 (Homo sapiens, UniProt P26358); test: Inhibition of human DNMT1 using polydeoxyinosine polydeoxycytosine DNA as substrate after 15 mins in presence of SAM by TR-FRET assay
[11] = Permeability of the compound at 50 uM after 18 hrs by PAMPA; type: ADME; conditions: read-out: permeability
[12] = Growth inhibition of human CEMO1 cells after 48 hrs by MTS assay; type: functional
OCI-Ly3 = test: Growth inhibition of human OCI-LY3 cells after 48 hrs by MTS assay; type: functional; conditions: OCI-Ly3, 48 h
OCI-Ly10 = test: Growth inhibition of human OCI-LY10 cells after 48 hrs by MTS assay; type: functional; conditions: OCI-Ly10, 48 h
CYP1A2 = target: T2, CYP1A2 (Homo sapiens, UniProt P05177); test: Inhibition of CYP1A2 in human liver microsomes at 10 uM after 10 mins in presence of NADPH by LC-MS/MS analysis relative to control; type: ADME
T2 sequence (P05177 whole entry): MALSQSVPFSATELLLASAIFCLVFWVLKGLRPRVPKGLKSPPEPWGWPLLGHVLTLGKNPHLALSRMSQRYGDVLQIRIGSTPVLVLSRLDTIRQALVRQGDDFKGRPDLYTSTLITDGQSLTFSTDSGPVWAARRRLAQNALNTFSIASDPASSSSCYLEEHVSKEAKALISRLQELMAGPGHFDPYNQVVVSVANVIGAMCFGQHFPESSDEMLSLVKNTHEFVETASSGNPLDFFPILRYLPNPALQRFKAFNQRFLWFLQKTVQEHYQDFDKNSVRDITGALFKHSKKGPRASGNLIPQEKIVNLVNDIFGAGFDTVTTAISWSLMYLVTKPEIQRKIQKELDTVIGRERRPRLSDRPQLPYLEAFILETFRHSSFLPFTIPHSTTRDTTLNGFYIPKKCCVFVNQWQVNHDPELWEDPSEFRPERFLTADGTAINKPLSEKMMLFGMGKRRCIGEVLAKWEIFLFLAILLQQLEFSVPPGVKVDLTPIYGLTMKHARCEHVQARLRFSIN

CYP2C9 = CYP2C9 (Homo sapiens, UniProt P11712); test: Inhibition of CYP2C9 in human liver microsomes at 10 uM after 10 mins in presence of NADPH by LC-MS/MS analysis relative to control; type: ADME
CYP2C19 = CYP2C19 (Homo sapiens, UniProt P33261); test: Inhibition of CYP2C19 in human liver microsomes at 10 uM after 10 mins in presence of NADPH by LC-MS/MS analysis relative to control; type: ADME
CYP2D6 = CYP2D6 (Homo sapiens, UniProt P10635); test: Inhibition of CYP2D6 in human liver microsomes at 10 uM after 10 mins in presence of NADPH by LC-MS/MS analysis relative to control; type: ADME
CYP3A4 = CYP3A4 (Homo sapiens, UniProt P08684); test: Inhibition of CYP3A4 in human liver microsomes at 10 uM after 10 mins in presence of NADPH by LC-MS/MS analysis relative to control; type: ADME
[13] = Growth inhibition of human LAL-CUN-2 cells at 10 uM after 48 hrs by MTS assay relative to control; type: functional; conditions: read-out: GI

Sequence of DNA (cytosine-5)-methyltransferase 1 (P26358 whole entry): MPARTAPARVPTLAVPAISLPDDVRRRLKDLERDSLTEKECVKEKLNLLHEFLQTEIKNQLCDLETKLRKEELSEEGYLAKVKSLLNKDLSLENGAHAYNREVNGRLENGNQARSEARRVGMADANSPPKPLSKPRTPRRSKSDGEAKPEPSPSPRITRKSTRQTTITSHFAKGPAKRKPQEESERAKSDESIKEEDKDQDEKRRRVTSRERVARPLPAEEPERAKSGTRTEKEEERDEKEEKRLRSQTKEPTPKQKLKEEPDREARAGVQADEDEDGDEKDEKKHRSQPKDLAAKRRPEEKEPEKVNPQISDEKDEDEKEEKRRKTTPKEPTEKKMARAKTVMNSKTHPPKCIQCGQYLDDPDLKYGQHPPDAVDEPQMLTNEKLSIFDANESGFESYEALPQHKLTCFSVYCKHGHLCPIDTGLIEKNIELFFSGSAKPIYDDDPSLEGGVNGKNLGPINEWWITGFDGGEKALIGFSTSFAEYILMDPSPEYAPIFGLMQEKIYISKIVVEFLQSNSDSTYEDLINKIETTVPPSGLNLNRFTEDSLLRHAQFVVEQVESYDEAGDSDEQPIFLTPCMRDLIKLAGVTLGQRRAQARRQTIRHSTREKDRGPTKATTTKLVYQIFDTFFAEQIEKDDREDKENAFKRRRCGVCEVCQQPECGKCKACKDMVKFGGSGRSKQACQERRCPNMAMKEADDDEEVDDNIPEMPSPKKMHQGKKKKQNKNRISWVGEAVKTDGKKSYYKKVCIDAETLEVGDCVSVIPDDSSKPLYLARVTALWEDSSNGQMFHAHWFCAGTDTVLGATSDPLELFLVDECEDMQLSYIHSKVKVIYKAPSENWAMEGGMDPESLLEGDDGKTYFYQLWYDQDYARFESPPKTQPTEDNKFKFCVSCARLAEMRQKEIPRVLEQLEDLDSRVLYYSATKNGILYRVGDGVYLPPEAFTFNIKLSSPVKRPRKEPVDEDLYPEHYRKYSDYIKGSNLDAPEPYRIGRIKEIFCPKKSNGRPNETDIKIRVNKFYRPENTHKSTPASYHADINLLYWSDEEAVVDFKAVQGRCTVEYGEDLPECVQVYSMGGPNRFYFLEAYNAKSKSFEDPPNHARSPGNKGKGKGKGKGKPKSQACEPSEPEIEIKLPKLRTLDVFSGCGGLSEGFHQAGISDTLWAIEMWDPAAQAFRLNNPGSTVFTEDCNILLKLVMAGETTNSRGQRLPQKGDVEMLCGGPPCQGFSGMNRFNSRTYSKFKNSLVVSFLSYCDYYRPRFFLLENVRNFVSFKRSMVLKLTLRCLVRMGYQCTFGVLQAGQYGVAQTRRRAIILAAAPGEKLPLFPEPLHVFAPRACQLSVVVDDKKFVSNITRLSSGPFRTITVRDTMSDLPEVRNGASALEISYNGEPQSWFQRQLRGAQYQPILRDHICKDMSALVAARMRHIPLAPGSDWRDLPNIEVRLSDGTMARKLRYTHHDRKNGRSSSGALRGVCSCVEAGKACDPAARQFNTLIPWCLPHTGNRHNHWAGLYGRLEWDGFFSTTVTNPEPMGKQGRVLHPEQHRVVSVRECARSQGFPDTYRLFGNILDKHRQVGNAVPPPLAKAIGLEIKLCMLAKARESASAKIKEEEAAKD
Sequence of CYP3A4 (P08684 whole entry): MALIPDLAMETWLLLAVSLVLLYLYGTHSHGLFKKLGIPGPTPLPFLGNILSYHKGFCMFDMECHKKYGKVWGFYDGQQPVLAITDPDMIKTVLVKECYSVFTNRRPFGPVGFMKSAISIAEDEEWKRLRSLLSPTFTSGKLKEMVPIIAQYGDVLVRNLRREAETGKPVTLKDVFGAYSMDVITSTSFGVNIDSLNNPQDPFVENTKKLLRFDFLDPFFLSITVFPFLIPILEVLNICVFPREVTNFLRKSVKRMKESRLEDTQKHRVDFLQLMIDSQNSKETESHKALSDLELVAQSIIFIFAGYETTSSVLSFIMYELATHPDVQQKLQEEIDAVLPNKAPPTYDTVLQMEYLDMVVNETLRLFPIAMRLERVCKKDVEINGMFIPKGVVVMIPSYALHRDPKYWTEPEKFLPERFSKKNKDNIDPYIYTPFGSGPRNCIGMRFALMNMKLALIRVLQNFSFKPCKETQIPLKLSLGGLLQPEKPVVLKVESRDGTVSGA
Sequence of CYP2C19 (P33261 whole entry): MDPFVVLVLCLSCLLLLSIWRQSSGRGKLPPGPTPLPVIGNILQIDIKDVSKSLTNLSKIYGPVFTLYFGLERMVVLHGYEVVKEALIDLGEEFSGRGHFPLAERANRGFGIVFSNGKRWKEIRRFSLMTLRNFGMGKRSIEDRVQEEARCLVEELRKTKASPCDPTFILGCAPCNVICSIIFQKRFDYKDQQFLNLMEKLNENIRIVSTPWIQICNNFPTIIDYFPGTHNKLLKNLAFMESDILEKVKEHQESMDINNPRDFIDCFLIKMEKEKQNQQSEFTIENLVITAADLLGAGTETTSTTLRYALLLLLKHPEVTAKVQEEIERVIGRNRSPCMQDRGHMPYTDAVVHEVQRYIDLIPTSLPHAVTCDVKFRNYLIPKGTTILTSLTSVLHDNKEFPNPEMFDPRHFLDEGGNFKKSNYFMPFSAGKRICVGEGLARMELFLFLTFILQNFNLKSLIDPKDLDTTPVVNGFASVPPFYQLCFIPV
Sequence of CYP2D6 (P10635 whole entry): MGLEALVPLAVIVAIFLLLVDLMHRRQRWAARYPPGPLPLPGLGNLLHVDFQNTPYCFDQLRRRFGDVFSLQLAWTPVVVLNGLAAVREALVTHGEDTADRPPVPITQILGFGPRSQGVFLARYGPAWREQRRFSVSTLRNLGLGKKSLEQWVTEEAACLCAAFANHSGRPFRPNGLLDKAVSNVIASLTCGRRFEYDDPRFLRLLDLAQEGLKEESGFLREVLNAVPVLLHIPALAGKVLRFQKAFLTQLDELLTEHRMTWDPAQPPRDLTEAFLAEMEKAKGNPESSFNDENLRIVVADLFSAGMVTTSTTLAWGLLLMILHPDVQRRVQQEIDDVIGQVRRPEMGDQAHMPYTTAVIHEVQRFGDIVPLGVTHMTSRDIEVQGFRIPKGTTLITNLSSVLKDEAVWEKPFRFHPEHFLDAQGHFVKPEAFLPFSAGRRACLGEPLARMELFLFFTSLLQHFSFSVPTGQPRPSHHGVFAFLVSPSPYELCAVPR
Sequence of CYP2C9 (P11712 whole entry): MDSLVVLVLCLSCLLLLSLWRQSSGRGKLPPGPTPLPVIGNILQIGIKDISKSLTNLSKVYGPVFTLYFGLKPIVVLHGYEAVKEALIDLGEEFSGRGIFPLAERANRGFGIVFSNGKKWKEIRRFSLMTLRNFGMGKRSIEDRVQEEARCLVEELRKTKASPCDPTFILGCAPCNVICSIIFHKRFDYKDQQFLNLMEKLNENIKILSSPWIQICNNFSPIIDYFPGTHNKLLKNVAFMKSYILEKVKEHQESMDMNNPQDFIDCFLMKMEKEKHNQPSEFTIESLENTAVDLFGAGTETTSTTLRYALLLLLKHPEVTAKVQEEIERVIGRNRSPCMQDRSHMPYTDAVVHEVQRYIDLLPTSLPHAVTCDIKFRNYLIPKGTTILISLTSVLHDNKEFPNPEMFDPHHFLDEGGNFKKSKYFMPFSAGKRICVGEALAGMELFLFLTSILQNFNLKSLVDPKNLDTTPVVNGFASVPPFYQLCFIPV

| SMILES | GI50 (MV4-11 [2]) [nM] | LC50 (THLE-2) [nM] | remaining at 20 min, 1 µM [5] [%] | half-life at 1 µM [6] [min] | pIC50 [9] | pIC50 [10] | Papp at 18 h, 50 µM [11] [×10⁻⁶ cm/s] | GI50 [12] [nM] | GI50 (OCI-Ly3) [nM] | GI50 (OCI-Ly10) [nM] | further results |
| --- | --- | --- | --- | --- | --- | --- | --- | --- | --- | --- | --- |
| COc1cc2c(NC3CCN(C)CC3)cc(-c3ccc(C)o3)nc2cc1OCCCN1CCCC1 | 269 | 1780 | 70.9 | 36 |  |  |  |  |  |  | GI50 [1]: 664 nM; remaining at 20 min, 1 µM ([3]; liver microsomes, read-out: Stability): 99.7%; half-life at 1 µM ([4]; liver microsomes): > 144 min; AUC(0-t) at 24 h [7]: 1.49 µM·h; inhibition in vivo at […] (MV4-11 [8]): 70% |
| COc1cc2c(NC3CCN(C(C)C)CC3)cc(-c3ccc(C)o3)nc2cc1OCCCN1CCCC1 | 649 | 1340 | 36.9 | 18 | 8.52 | 6.64 | 2.58 | 247 | 898 | 792 | inhibition at 10 min, 10 µM (CYP1A2): 4.3%; inhibition at 10 min, 10 µM (CYP2C9): 6.1%; inhibition at 10 min, 10 µM (CYP2C19): 0%; inhibition at 10 min, 10 µM (CYP2D6): 11.4%; inhibition at 10 min, 10 µM (CYP3A4): 0%; Stability ([3]; microsomes, 20 min, 1 µM): 64%; t1/2 ([4]; microsomes, 20 min, 1 µM): 102 min |
| COc1cc2c(NC3CCN(C)CC3)cc(-c3ccoc3)nc2cc1OCCCN1CCCC1 |  | 22300 |  |  | 8.15 | 6.01 | 0.22 | 4560 | > 4000 | 386 | inhibition of growth at 10 µM [13]: 54% |
